Laboratory results reported in US10034861B2 (priority 2016, dated 2018).
Where two headings read alike, the source gives them in different places.

Legend:
Type in all cases: biochemical
Conditions in all cases: 15 nM tritium labelled cAMP, 1 hr at room temperature, SPA beads
[1] = target: PDE1A (Homo sapiens (Human), UniProt P54750); test: biochemical
Text: (§1) Table 1 lists the IC50 value for inhibition of PDE1 by the compounds of the invention. […] PDE1 assays are described in the Experimental Section.

[2] = target: PDE1C (Homo sapiens (Human), UniProt Q14123); test: biochemical
PDE1C, sequence (Q14123 whole entry): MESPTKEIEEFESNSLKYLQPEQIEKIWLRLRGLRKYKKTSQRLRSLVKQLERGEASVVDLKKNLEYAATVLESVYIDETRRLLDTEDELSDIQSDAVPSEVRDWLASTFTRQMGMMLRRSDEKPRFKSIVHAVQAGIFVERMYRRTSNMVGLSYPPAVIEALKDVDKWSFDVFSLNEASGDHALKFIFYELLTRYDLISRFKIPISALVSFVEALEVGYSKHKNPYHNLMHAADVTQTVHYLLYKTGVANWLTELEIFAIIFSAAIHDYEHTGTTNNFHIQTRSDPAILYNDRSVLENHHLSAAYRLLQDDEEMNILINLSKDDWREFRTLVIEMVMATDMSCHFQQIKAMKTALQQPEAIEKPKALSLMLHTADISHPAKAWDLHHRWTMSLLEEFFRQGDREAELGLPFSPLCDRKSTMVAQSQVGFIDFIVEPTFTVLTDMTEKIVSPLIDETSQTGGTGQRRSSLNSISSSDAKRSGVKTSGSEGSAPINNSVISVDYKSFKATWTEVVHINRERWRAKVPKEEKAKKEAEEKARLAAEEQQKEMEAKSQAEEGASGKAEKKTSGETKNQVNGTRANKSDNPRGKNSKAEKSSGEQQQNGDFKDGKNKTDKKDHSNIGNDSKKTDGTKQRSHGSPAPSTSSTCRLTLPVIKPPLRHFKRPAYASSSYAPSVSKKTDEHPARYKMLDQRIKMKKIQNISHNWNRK
Text: as §1

[3] = target: PDE1B (Homo sapiens (Human), UniProt Q01064); test: PDE1 inhibition assay (PDE1B)
PDE1B, sequence (Q01064 whole entry): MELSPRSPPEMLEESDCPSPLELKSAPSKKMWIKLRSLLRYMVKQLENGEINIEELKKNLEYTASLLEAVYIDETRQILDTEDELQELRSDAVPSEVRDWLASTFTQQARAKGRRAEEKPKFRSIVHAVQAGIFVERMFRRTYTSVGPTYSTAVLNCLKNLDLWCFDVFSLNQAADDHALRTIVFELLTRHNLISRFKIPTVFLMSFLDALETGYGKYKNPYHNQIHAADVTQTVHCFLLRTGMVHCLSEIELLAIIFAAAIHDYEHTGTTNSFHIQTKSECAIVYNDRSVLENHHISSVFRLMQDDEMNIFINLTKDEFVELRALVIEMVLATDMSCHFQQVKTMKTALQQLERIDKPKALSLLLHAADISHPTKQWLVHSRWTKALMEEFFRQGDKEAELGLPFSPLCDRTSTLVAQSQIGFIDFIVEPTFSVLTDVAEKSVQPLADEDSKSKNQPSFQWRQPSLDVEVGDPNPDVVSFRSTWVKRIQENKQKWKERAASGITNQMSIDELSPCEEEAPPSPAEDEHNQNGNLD
Text: as §1

PDE1A, sequence (P54750 whole entry): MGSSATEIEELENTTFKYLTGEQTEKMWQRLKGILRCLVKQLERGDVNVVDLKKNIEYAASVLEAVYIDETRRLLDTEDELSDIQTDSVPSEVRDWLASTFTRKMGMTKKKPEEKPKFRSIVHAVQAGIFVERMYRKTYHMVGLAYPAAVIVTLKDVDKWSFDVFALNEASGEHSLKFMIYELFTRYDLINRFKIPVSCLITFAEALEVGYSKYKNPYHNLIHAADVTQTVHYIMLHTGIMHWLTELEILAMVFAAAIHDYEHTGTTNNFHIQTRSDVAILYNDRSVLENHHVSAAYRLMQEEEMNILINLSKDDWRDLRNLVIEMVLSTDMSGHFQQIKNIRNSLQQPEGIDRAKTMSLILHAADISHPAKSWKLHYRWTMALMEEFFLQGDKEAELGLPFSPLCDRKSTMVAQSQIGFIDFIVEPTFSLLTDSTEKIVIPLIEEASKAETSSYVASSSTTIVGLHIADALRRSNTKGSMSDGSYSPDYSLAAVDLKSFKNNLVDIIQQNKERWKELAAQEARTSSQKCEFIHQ

Compound	IC50 [1] [nM]	IC50 [2] [nM]	IC50 ([3]; read-out: PDE1B, IC50) [nM]	IC50 ([3]; PDE1B, IC50 (nM)) [nM]
CCCOc1ncccc1-c1cc(NCc2nc[nH]n2)c2c(n1)c(C)nn2C(C)C [Example 146, 1-isopropyl-3-methyl-5-(2-propoxy-3-pyridyl)-N-(1H-1,2,4-triazol-3-ylmethyl)pyrazolo[4,3-b]pyridin-7-amine]	3.9	14	0.51	–
CCOc1ncccc1-c1cc(NCc2nccnc2OC)c2c(n1)c(C)nn2C(C)C [Example 91, 5-(2-ethoxy-3-pyridyl)-1-isopropyl-N-[(3-methoxypyrazin-2-yl)methyl]-3-methyl-pyrazolo[4,3-b]pyridin-7-amine]	27	70	2.3	–
CCOc1ncccc1-c1cc(NCc2ccncc2)c2c(cnn2C(C)C)n1 [Example 22, 5-(2-ethoxy-3-pyridyl)-1-isopropyl-N-(4-pyridylmethyl)pyrazolo[4,3-b]pyridin-7-amine]	250	430	50	–
CCOc1ncccc1-c1cc(NCc2cn(C)c(C)n2)c2c(n1)c(C)nn2C(C)C [Example 51, N-((1,2-dimethyl-1H-imidazol-4-yl)methyl)-5-(2-ethoxypyridin-3-yl)-1-isopropyl-3-methyl-1H-pyrazolo[4,3-b]pyridin-7-amine 2,2,2-trifluoroacetate]	53	88	9.1	–
CCOc1ncccc1-c1cc(NCc2cc(OC)ccn2)c2c(n1)c(C)nn2C(C)C [Example 81, 5-(2-ethoxy-3-pyridyl)-1-isopropyl-N-[(4-methoxy-2-pyridyl)methyl]-3-methyl-pyrazolo[4,3-b]pyridin-7-amine]	1	4.7	0.26	–
CCOc1ncccc1-c1cc(NCc2cn(C)cn2)c2c(cnn2C(C)C)n1 [Example 21, 5-(2-ethoxy-3-pyridyl)-1-isopropyl-N-[(1-methylimidazol-4-yl)methyl]pyrazolo[4,3-b]pyridin-7-amine]	8.9	29	0.44	–
CCCOc1ncccc1-c1cc(NCc2nnn(C)n2)c2c(n1)c(C)nn2C(C)C [Example 93, 1-isopropyl-3-methyl-N-[(2-methyltetrazol-5-yl)methyl]-5-(2-propoxy-3-pyridyl)pyrazolo[4,3-b]pyridin-7-amine]	4.3	17	0.96	–
CCOc1ncccc1-c1cc(NCc2cnn(C)c2)c2c(cnn2C2COC2)n1 [Example 14, 5-(2-ethoxypyridin-3-yl)-N-((1-methyl-1H-pyrazol-4-yl)methyl)-1-(oxetan-3-yl)-1H-pyrazolo[4,3-b]pyridin-7-amine]	450	300	38	–
Cc1nn(C(C)C)c2c(NCc3cnn(C)c3)cc(-c3cnnn3C)nc12 [Example 169, 1-isopropyl-3-methyl-N-[(1-methylpyrazol-4-yl)methyl]-5-(3-methyltriazol-4-yl)pyrazolo[4,3-b]pyridin-7-amine]	610	170	85	–
CCOc1ncccc1-c1cc(NCc2ccc(F)nc2)c2c(n1)c(C)nn2C(C)C [Example 116, 5-(2-ethoxy-3-pyridyl)-N-[(6-fluoro-3-pyridyl)methyl]-1-isopropyl-3-methyl-pyrazolo[4,3-b]pyridin-7-amine]	21	46	2.4	–
CCOc1ncccc1-c1cc(NCc2ccnc(C)n2)c2c(n1)c(C)nn2C(C)C [Example 105, 5-(2-ethoxy-3-pyridyl)-1-isopropyl-3-methyl-N-[(2-methylpyrimidin-4-yl)methyl]pyrazolo[4,3-b]pyridin-7-amine]	54	150	12	–
CCN(C)c1ncccc1-c1cc(NCc2ccc(OC)cc2)c2c(n1)c(C)nn2C(C)C [Example 198, 5-(2-(ethyl(methyl)amino)pyridin-3-yl)-1-isopropyl-N-(4-methoxybenzyl)-3-methyl-1H-pyrazolo[4,3-b]pyridin-7-amine]	1100	1000	240	–
CCOc1ncccc1-c1cc(NCc2ccc(OC)cn2)c2c(n1)c(C)nn2C(C)C [Example 112, 5-(2-ethoxy-3-pyridyl)-1-isopropyl-N-[(5-methoxy-2-pyridyl)methyl]-3-methyl-pyrazolo[4,3-b]pyridin-7-amine]	61	100	12	–
CCOc1ncccc1-c1cc(NCc2n[nH]c(C)n2)c2c(n1)c(C)nn2C(C)C [Example 55, 5-(2-ethoxy-3-pyridyl)-1-isopropyl-3-methyl-N-[(5-methyl-1H-1,2,4-triazol-3-yl)methyl]pyrazolo[4,3-b]pyridin-7-amine]	3.4	5.5	0.51	–
CCOc1ncccc1-c1cc(NCc2cc(C)on2)c2c(n1)c(C)nn2C(C)C [Example 3, 5-(2-ethoxy-3-pyridyl)-1-isopropyl-3-methyl-N-[(5-methylisoxazol-3-yl)methyl]pyrazolo[4,3-b]pyridin-7-amine]	0.8	3	0.11	–
Cc1cnc(-c2cc(NCc3cnn(C)c3)c3c(n2)c(C)nn3C(C)C)s1 [Example 148, 1-isopropyl-3-methyl-N-[(1-methylpyrazol-4-yl)methyl]-5-(5-methylthiazol-2-yl)pyrazolo[4,3-b]pyridin-7-amine]	110	86	58	–
CCOc1ncccc1-c1cc(NCc2ccc(OC)nc2)c2c(n1)c(C)nn2C(C)C [Example 111, 5-(2-ethoxy-3-pyridyl)-1-isopropyl-N-[(6-methoxy-3-pyridyl)methyl]-3-methyl-pyrazolo[4,3-b]pyridin-7-amine]	28	68	1.4	–
CCOc1ncccc1-c1cc(NCc2ncc(C)s2)c2c(n1)c(C)nn2C(C)C [Example 2, 5-(2-ethoxy-3-pyridyl)-1-isopropyl-3-methyl-N-[(5-methylthiazol-2-yl)methyl]pyrazolo[4,3-b]pyridin-7-amine]	0.46	4.9	0.071	–
Cc1nn(C(C)C)c2c(NCc3cnn(C)c3)cc(N3C(=O)OCC3C)nc12 (stereo not drawn) [Example 155, 3-[1-isopropyl-3-methyl-7-[(1-methylpyrazol-4-yl)methylamino]pyrazolo[4,3-b]pyridin-5-yl]-4-methyl-oxazolidin-2-one]	8.2	3.9	4.9	–
CCOc1ncccc1-c1cc(NCc2cnn(C)c2)c2c(cnn2C)n1 [Example 16, 5-(2-ethoxypyridin-3-yl)-1-methyl-N-((1-methyl-1H-pyrazol-4-yl)methyl)-1H-pyrazolo[4,3-b]pyridin-7-amine]	670	1800	92	–
CCOc1ncccc1-c1cc(NCc2cccnc2)c2c(n1)c(C)nn2C(C)C [Example 115, 5-(2-ethoxy-3-pyridyl)-1-isopropyl-3-methyl-N-(3-pyridylmethyl)pyrazolo[4,3-b]pyridin-7-amine]	15	31	2	–
Cc1nn(C(C)C)c2c(NCc3cnn(C)c3)cc(N3CCC3=O)nc12 [Example 152, 1-[1-isopropyl-3-methyl-7-[(1-methylpyrazol-4-yl)methylamino]pyrazolo[4,3-b]pyridin-5-yl]azetidin-2-one]	48	61	32	–
Cc1nn(C(C)C)c2c(NCc3ncn(C)n3)cc(-c3ccc[nH]c3=O)nc12 [Example 186, 3-[1-isopropyl-3-methyl-7-[(1-methyl-1,2,4-triazol-3-yl)methylamino]pyrazolo[4,3-b]pyridin-5-yl]-1H-pyridin-2-one]	64	130	15	–
CCOc1ncccc1-c1cc(NCc2cccnc2C)c2c(n1)c(C)nn2C(C)C [Example 84, 5-(2-ethoxy-3-pyridyl)-1-isopropyl-3-methyl-N-[(2-methyl-3-pyridyl)methyl]pyrazolo[4,3-b]pyridin-7-amine]	19	23	1.8	–
CCCOc1ncccc1-c1cc(NCc2ncn(C)n2)c2c(n1)c(C)nn2C(C)CC (single isomer, unassigned) [Example 134, 3-methyl-1-[1-methylpropyl]-N-[(1-methyl-1,2,4-triazol-3-yl)methyl]-5-(2-propoxy-3-pyridyl)pyrazolo[4,3-b]pyridin-7-amine]	0.96	1.5	–	0.12
CCOc1ncccc1-c1cc(NCc2cccnc2C(F)(F)F)c2c(n1)c(C)nn2C(C)C [Example 77, 5-(2-ethoxy-3-pyridyl)-1-isopropyl-3-methyl-N-[[2-(trifluoromethyl)-3-pyridyl]methyl]pyrazolo[4,3-b]pyridin-7-amine]	21	64	0.22	–
CCOc1ncccc1-c1cc(NCc2ncon2)c2c(n1)c(C)nn2C(C)C [Example 53, 5-(2-ethoxy-3-pyridyl)-1-isopropyl-3-methyl-N-(1,2,4-oxadiazol-3-ylmethyl)pyrazolo[4,3-b]pyridin-7-amine]	9.3	17	0.89	–
CCOc1ncccc1-c1cc(NCc2cc(C)cs2)c2c(n1)c(C)nn2C(C)C [Example 35, 5-(2-ethoxy-3-pyridyl)-1-isopropyl-3-methyl-N-[(4-methyl-2-thienyl)methyl]pyrazolo[4,3-b]pyridin-7-amine]	7.3	32	1.7	–
CCOc1ncccc1-c1cc(NCc2cncc(OC)n2)c2c(n1)c(C)nn2C(C)C [Example 82, 5-(2-ethoxy-3-pyridyl)-1-isopropyl-N-[(6-methoxypyrazin-2-yl)methyl]-3-methyl-pyrazolo[4,3-b]pyridin-7-amine]	16	35	1	–
